Assay results published in patent publication US20100298141A1, “SUBSTITUTED PYRIDINE N-OXIDE HERBICIDES” (E. I. DU PONT DE NEMOURS AND COMPANY, priority 2007, published 2010).

How the values were obtained:
[1] = system: redroot pigweed; assay: Test A pre-/postemergence greenhouse test; format: in vivo, Amaranthus retroflexus; conditions: for Plant response rating, Pigweed: 0 to 100 scale where 0 is no effect and 100 is complete control; for Pigweed plant response rating: 0 to 100 scale
Outline: (§1)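 Sowing in loam/sand; same-day pre (directed soil spray) and post (foliar, 1–2 leaf, 2–10 cm) treatment with surfactant-containing non-phytotoxic solvent formulation; ~10 days in greenhouse; eye-scored injury against untreated plants.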

[2] = system: corn; assay: Test A pre-/postemergence greenhouse test; format: in vivo, Zea mays; conditions: for Plant response rating, Corn: 0 to 100 scale where 0 is no effect and 100 is complete control; for Corn plant response rating: 0 to 100 scale
Outline: as §1

[3] = system: blackgrass; assay: Test C pre-/postemergence test; format: in vivo, Alopecurus myosuroides
Outline: (§2)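 Test chemicals were formulated with surfactant in a non-phytotoxic solvent and sprayed both on freshly planted seeds (preemergence) and on 1- to 4-leaf plants of 2–18 cm (postemergence). Flooded-paddy pots received compound directly into 3 cm of standing water, maintained for the test.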

[4] = system: wheat; assay: Test C pre-/postemergence test; format: in vivo, Triticum aestivum
Outline: as §2

[5] = system: wild oat; assay: Test C pre-/postemergence test; format: in vivo, Avena fatua
Outline: as §2

[6] = system: catchweed bedstraw; assay: Test C pre-/postemergence test; format: in vivo, Galium aparine
Outline: as §2

[7] = system: bermudagrass; assay: Test C pre-/postemergence test; format: in vivo, Cynodon dactylon
Outline: as §2

[8] = system: Surinam grass; assay: Test C pre-/postemergence test; format: in vivo, Brachiaria decumbens
Outline: as §2

[9] = system: crabgrass; assay: Test C pre-/postemergence test; format: in vivo, Digitaria sanguinalis
Outline: as §2

[10] = system: kochia; assay: Test C pre-/postemergence test; format: in vivo, Kochia scoparia
Outline: as §2

[11] = system: eastern black nightshade; assay: Test C pre-/postemergence test; format: in vivo, Solanum ptycanthum
Outline: as §2

[12] = system: pigweed; assay: Test C pre-/postemergence test; format: in vivo, Amaranthus retroflexus
Outline: as §2

[13] = system: common (oilseed) sunflower; assay: Test C pre-/postemergence test; format: in vivo, Helianthus annuus
Outline: as §2

[14] = system: velvetleaf; assay: Test C pre-/postemergence test; format: in vivo, Abutilon theophrasti
Outline: as §2

[15] = system: rice; assay: Test C flooded paddy test; format: in vivo, Oryza sativa; conditions: Flood
Outline: (§3)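 Flooded 3 cm over soil; compound into paddy water; depth kept constant. Greenhouse 13–15 d.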

[16] = system: duck salad; assay: Test C flooded paddy test; format: in vivo, Heteranthera limosa; conditions: Flood
Outline: as §3

[17] = system: barnyardgrass; assay: Test C flooded paddy test; format: in vivo, Echinochloa crus-galli; conditions: Flood
Outline: as §3

[18] = Postemergence, 500 g ai/ha, 0 is no effect, 100 is complete control
[19] = Preemergence, 125 g ai/ha, 0 no effect, 100 complete control
[20] = 62 g ai/ha, Preemergence, scale 0 to 100
[21] = 125 g ai/ha, preemergence, scale 0 (no effect) to 100 (complete control)
[22] = Preemergence, 31 g ai/ha, scale 0 to 100 (0 no effect, 100 complete control)
[23] = preemergence, 250 g ai/ha, scale 0 (no effect) to 100 (complete control)
[24] = 62 g ai/ha, scale 0 to 100 (0 no effect, 100 complete control)
[25] = 250 g ai/ha, scale 0 to 100, 0 no effect, 100 complete control, 13 to 15 days

**Q.** With `CC(Oc1c(C[S+]([O-])c2cccc[n+]2[O-])c(C(F)(F)F)nn1C)C(F)(F)F` (centres unmarked) [Compound 77] as the molecule, how does the “Plant response rating, Pigweed” value ([1]; Postemergence, 125 g ai/ha) read?
**A.** 70

**Q.** What about the “Pigweed plant response rating” value [1, 18] of the same molecule?
**A.** 80

**Q.** And the “Pigweed plant response rating” value [1, 19]?
**A.** 70

**Q.** What about the “Plant response rating, Pigweed” value ([1]; Preemergence, 500 g ai/ha) of the same molecule?
**A.** 100

**Q.** And the “Plant response rating, Corn” value ([2]; Postemergence, 125 g ai/ha)?
**A.** 50

**Q.** What about the “Corn plant response rating” value [2, 18] of the same molecule?
**A.** 60

**Q.** And the “Corn plant response rating” value [2, 19]?
**A.** 50

**Q.** What about the “Plant response rating, Corn” value ([2]; Preemergence, 500 g ai/ha) of the same molecule?
**A.** 80

**Q.** And the “Blackgrass plant response rating” value [3, 20]?
**A.** 100

**Q.** What about the “Blackgrass plant response rating” value [3, 21] of the same molecule?
**A.** 100

**Q.** What about the “Plant response rating, Blackgrass” value [3, 22] of the same molecule?
**A.** 100

**Q.** What about the “Blackgrass plant response rating” value [3, 23] of the same molecule?
**A.** 100

**Q.** And the “Wheat plant response rating” value [4, 20]?
**A.** 40

**Q.** And the “Wheat plant response rating” value [4, 21]?
**A.** 80

**Q.** What about the “Plant response rating, Wheat” value [4, 22] of the same molecule?
**A.** 20

**Q.** What about the “Wheat plant response rating” value [4, 23] of the same molecule?
**A.** 95

**Q.** And the “Oat, Wild plant response rating” value [5, 20]?
**A.** 70

**Q.** What about the “Oat, Wild plant response rating” value [5, 21] of the same molecule?
**A.** 90

**Q.** And the “Plant response rating, Oat, Wild” value [5, 22]?
**A.** 35

**Q.** And the “Oat, Wild plant response rating” value [5, 23]?
**A.** 95

**Q.** What about the “Galium plant response rating” value [6, 20] of the same molecule?
**A.** 100

**Q.** What about the “Galium plant response rating” value [6, 21] of the same molecule?
**A.** 100

**Q.** And the “Plant response rating, Galium” value [6, 22]?
**A.** 100

**Q.** What about the “Galium plant response rating” value [6, 23] of the same molecule?
**A.** 100

**Q.** And the “Bermudagrass plant response rating” value ([7]; 62 g ai/ha, Preemergence, scale 0 to 100 (0 no effect, 100 complete control))?
**A.** 100

**Q.** And the “Bermudagrass plant response rating” value [7, 21]?
**A.** 100

**Q.** And the “Plant response rating, Bermudagrass” value [7, 22]?
**A.** 100

**Q.** What about the “Bermudagrass plant response rating” value [7, 23] of the same molecule?
**A.** 100

**Q.** And the “Surinam Grass plant response rating” value [8, 20]?
**A.** 100

**Q.** And the “Surinam Grass plant response rating” value [8, 21]?
**A.** 100

**Q.** And the “Plant response rating, Surinam Grass” value [8, 22]?
**A.** 85

**Q.** And the “Surinam Grass plant response rating” value [8, 23]?
**A.** 100

**Q.** What about the “Crabgrass, Large plant response rating” value [9, 20] of the same molecule?
**A.** 100

**Q.** What about the “Crabgrass, Large plant response rating” value [9, 21] of the same molecule?
**A.** 100

**Q.** What about the “Plant response rating, Crabgrass, Large” value [9, 22] of the same molecule?
**A.** 80

**Q.** And the “Crabgrass, Large plant response rating” value [9, 23]?
**A.** 100

**Q.** What about the “Kochia plant response rating” value [10, 20] of the same molecule?
**A.** 100

**Q.** And the “Kochia plant response rating” value [10, 21]?
**A.** 100

**Q.** What about the “Plant response rating, Kochia” value [10, 22] of the same molecule?
**A.** 100

**Q.** And the “Kochia plant response rating” value [10, 23]?
**A.** 100

**Q.** And the “Nightshade plant response rating” value [11, 20]?
**A.** 100

**Q.** What about the “Nightshade plant response rating” value [11, 21] of the same molecule?
**A.** 100

**Q.** What about the “Plant response rating, Nightshade” value [11, 22] of the same molecule?
**A.** 100

**Q.** What about the “Nightshade plant response rating” value [11, 23] of the same molecule?
**A.** 100

**Q.** What about the “Pigweed plant response rating” value [12, 20] of the same molecule?
**A.** 100

**Q.** What about the “Pigweed plant response rating” value [12, 21] of the same molecule?
**A.** 100

**Q.** What about the “Plant response rating, Pigweed” value [12, 22] of the same molecule?
**A.** 100

**Q.** What about the “Pigweed plant response rating” value [12, 23] of the same molecule?
**A.** 100

**Q.** And the “Sunflower plant response rating” value [13, 20]?
**A.** 0

**Q.** What about the “Sunflower plant response rating” value [13, 21] of the same molecule?
**A.** 80

**Q.** And the “Plant response rating, Sunflower” value [13, 22]?
**A.** 0

**Q.** And the “Sunflower plant response rating” value [13, 23]?
**A.** 98

**Q.** And the “Velvetleaf plant response rating” value [14, 20]?
**A.** 100

**Q.** What about the “Velvetleaf plant response rating” value [14, 21] of the same molecule?
**A.** 100

**Q.** And the “Plant response rating, Velvetleaf” value [14, 22]?
**A.** 60

**Q.** And the “Velvetleaf plant response rating” value [14, 23]?
**A.** 100

**Q.** And the “Plant response rating, Rice” value [15, 24]?
**A.** 30

**Q.** And the “Plant response rating, Rice” value [15, 25]?
**A.** 70

**Q.** And the “Plant response rating, Ducksalad” value [16, 24]?
**A.** 75

**Q.** And the “Plant response rating, Ducksalad” value [16, 25]?
**A.** 100

**Q.** What about the “Plant response rating, Barnyardgrass” value [17, 24] of the same molecule?
**A.** 0

**Q.** What about the “Plant response rating, Barnyardgrass” value [17, 25] of the same molecule?
**A.** 75
